Data published in the supplement of paper PMC6004109.

How the values were obtained:
Conditions in all cases: temperature: 37 °C
[1] = tested on: Saccharomyces cerevisiae ZIM 2255 (RPMI); test: FICI maximum (fractional inhibitory concentration index, Loewe) (dimensionless); higher = less synergy / more antagonism
Procedure: (§1)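 CLSI M27-A3 checkerboard broth microdilution of an immunomodulatory drug (or amoxicillin) combined with an antifungal against S. cerevisiae and C. glabrata isolates. Growth was read as OD600 after incubation at 37 °C (48 h for the reported MICs). Reported quantities are the FICI (Loewe: MIC50 for azoles and immunomodulators, MIC90 for AMB; ≤0.5 synergy, ≥4 antagonism), as minimum and maximum over the surface, and the Bliss-independence sum of statistically significant ΔE (positive = synergy). Clinical isolates were tested in RPMI; C. glabrata ATCC 2001 and its pdr1Δ mutant were tested in YPD.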

[2] = tested on: Candida glabrata ZIM 2389 (RPMI); test: as above
Procedure: as §1

[3] = tested on: Candida glabrata ZIM 2344 (RPMI); test: as above
Procedure: as §1

[4] = tested on: Saccharomyces cerevisiae ZIM 2558 (RPMI); test: as above
Procedure: as §1

[5] = tested on: Saccharomyces cerevisiae ZIM 2247 (RPMI); test: as above
Procedure: as §1

[6] = tested on: Saccharomyces cerevisiae ZIM 2269 (RPMI); test: as above
Procedure: as §1

[7] = tested on: Candida glabrata ZIM 2382 (RPMI); test: as above
Procedure: as §1

[8] = tested on: Candida glabrata ZIM 2365 (RPMI); test: as above
Procedure: as §1

[9] = tested on: Saccharomyces cerevisiae ZIM 2260 (RPMI); test: as above
Procedure: as §1

[10] = tested on: Candida glabrata ZIM 2385 (RPMI); test: as above
Procedure: as §1

[11] = tested on: Saccharomyces cerevisiae ZIM 2566 (RPMI); test: as above
Procedure: as §1

[12] = tested on: Candida glabrata ZIM 2369 (RPMI); test: as above
Procedure: as §1

[13] = tested on: Saccharomyces cerevisiae ZIM 2255 (RPMI); test: Bliss independence sum of statistically significant ΔE (measured minus predicted growth inhibition) over checkerboard surface (fraction (sum of ΔE; 1 = 100%)); higher = more synergy
[14] = tested on: Candida glabrata ZIM 2365 (RPMI); test: as above
[15] = tested on: Saccharomyces cerevisiae ZIM 2566 (RPMI); test: as above
[16] = tested on: Candida glabrata ZIM 2369 (RPMI); test: as above
[17] = tested on: Saccharomyces cerevisiae ZIM 2255 (RPMI); test: FICI minimum (fractional inhibitory concentration index, Loewe) (dimensionless); higher = less synergy / more antagonism
Procedure: as §1

[18] = tested on: Candida glabrata ZIM 2389 (RPMI); test: as above
Procedure: as §1

[19] = tested on: Candida glabrata ZIM 2344 (RPMI); test: as above
Procedure: as §1

[20] = tested on: Saccharomyces cerevisiae ZIM 2558 (RPMI); test: as above
Procedure: as §1

[21] = tested on: Saccharomyces cerevisiae ZIM 2247 (RPMI); test: as above
Procedure: as §1

[22] = tested on: Saccharomyces cerevisiae ZIM 2269 (RPMI); test: as above
Procedure: as §1

[23] = tested on: Candida glabrata ZIM 2382 (RPMI); test: as above
Procedure: as §1

[24] = tested on: Candida glabrata ZIM 2365 (RPMI); test: as above
Procedure: as §1

[25] = tested on: Saccharomyces cerevisiae ZIM 2260 (RPMI); test: as above
Procedure: as §1

[26] = tested on: Candida glabrata ZIM 2385 (RPMI); test: as above
Procedure: as §1

[27] = tested on: Saccharomyces cerevisiae ZIM 2566 (RPMI); test: as above
Procedure: as §1

[28] = tested on: Candida glabrata ZIM 2369 (RPMI); test: as above
Procedure: as §1

Structure (SMILES) | FICI maximum [1] | FICI maximum [2] | FICI maximum [3] | FICI maximum [4] | FICI maximum [5] | FICI maximum [6] | FICI maximum [7] | FICI maximum [8] | FICI maximum [9] | FICI maximum [10] | FICI maximum [11] | FICI maximum [12] | Bliss independence sum [13] | Bliss independence sum [14] | Bliss independence sum [15] | Bliss independence sum [16] | FICI minimum [17] | FICI minimum [18] | FICI minimum [19] | FICI minimum [20] | FICI minimum [21] | FICI minimum [22] | FICI minimum [23] | FICI minimum [24] | FICI minimum [25] | FICI minimum [26] | FICI minimum [27] | FICI minimum [28]
CC1(C)S[C@@H]2[C@H](NC(=O)[C@H](N)c3ccc(O)cc3)C(=O)N2[C@H]1C(=O)O [amoxicillin] + CCC(C)n1ncn(-c2ccc(N3CCN(c4ccc(OCC5COC(Cn6cncn6)(c6ccc(Cl)cc6Cl)O5)cc4)CC3)cc2)c1=O [itraconazole] | 1.25 | 1.25 | 0.375 | 0.75 | 1.25 | 1.25 | 2.25 | 1.25 | 1.25 | 1.25 | 2.12 | 1.25 | 0.234 | 3.78 | -0.787 | 0.313 | 1.01 | 1.01 | 0.0703 | 0.508 | 0.508 | 1 | 1.01 | 0.562 | 1.01 | 1.01 | 1.01 | 1.01
CC1(C)S[C@@H]2[C@H](NC(=O)[C@H](N)c3ccc(O)cc3)C(=O)N2[C@H]1C(=O)O [amoxicillin] + C[C@@H]1[C@H](O)[C@@H](C)/C=C/C=C/C=C/C=C/C=C/C=C/C=C/[C@H](O[C@@H]2O[C@H](C)[C@@H](O)[C@H](N)[C@@H]2O)C[C@@H]2O[C@](O)(C[C@@H](O)C[C@@H](O)[C@H](O)CC[C@@H](O)C[C@@H](O)CC(=O)O[C@H]1C)C[C@H](O)[C@H]2C(=O)O [amphotericin B] | 1.25 | 1.25 | 1.25 | 8.78 | 1.25 | 1.25 | 1.25 | 1.25 | 1.25 | 1.25 | 4.25 | 1.25 | -2.26 | 2.12 | -0.244 | -0.462 | 1.01 | 0.508 | 0.133 | 2.02 | 1.01 | 1.01 | 0.508 | 0.258 | 1.01 | 0.508 | 0.562 | 1.01
CN(Cc1cnc2nc(N)nc(N)c2n1)c1ccc(C(=O)N[C@@H](CCC(=O)O)C(=O)O)cc1 [methotrexate] + CCC(C)n1ncn(-c2ccc(N3CCN(c4ccc(OCC5COC(Cn6cncn6)(c6ccc(Cl)cc6Cl)O5)cc4)CC3)cc2)c1=O [itraconazole] | 1.08 | 2.04 | 1.16 | 1.08 | 1.16 | 1.16 | 2.16 | 1.16 | 2.04 | 2.16 | 1.16 | 1.16 | 1.41 | 2.18 | 1.34 | -0.495 | 1 | 1 | 1 | 0.656 | 0.505 | 1 | 1 | 0.505 | 1.08 | 0.505 | 1 | 1
CN(Cc1cnc2nc(N)nc(N)c2n1)c1ccc(C(=O)N[C@@H](CCC(=O)O)C(=O)O)cc1 [methotrexate] + C[C@@H]1[C@H](O)[C@@H](C)/C=C/C=C/C=C/C=C/C=C/C=C/C=C/[C@H](O[C@@H]2O[C@H](C)[C@@H](O)[C@H](N)[C@@H]2O)C[C@@H]2O[C@](O)(C[C@@H](O)C[C@@H](O)[C@H](O)CC[C@@H](O)C[C@@H](O)CC(=O)O[C@H]1C)C[C@H](O)[C@H]2C(=O)O [amphotericin B] | 1.5 | 1.16 | 1.08 | 2.16 | 1.16 | 1.16 | 1.16 | 1.16 | 1.16 | 2.16 | 1.16 | 1.16 | 0.262 | -0.0967 | -3.15 | 0.0762 | 0.516 | 1 | 0.656 | 1 | 1 | 1 | 1 | 1 | 1 | 2 | 1 | 1
CN(Cc1cnc2nc(N)nc(N)c2n1)c1ccc(C(=O)N[C@@H](CCC(=O)O)C(=O)O)cc1 [methotrexate] + OC(Cn1cncn1)(Cn1cncn1)c1ccc(F)cc1F [fluconazole] | 1.08 | 1.16 | 0.656 | 1.04 | 1.16 | 1.08 | 2.16 | 1.16 | 2 | 2.16 | 2.16 | 1.16 | -0.754 | 0.394 | -4.52 | 0.22 | 1 | 0.505 | 0.505 | 0.406 | 1 | 0.656 | 1 | 1 | 1.01 | 1 | 1 | 1
